Experiments:
PI3K-alpha = target: T1, PI3K-alpha (Homo sapiens, UniProt P42336); test: HTRF PI3K biochemical assay, alpha isoform; details: ratio PI3K-alpha IC50 value / PI3K-delta IC50 value
T1 construct: purchased Upstate; Millipore 14-602

PI3K-delta = target: T2, PI3K-delta (Homo sapiens, UniProt O00329); test: HTRF PI3K biochemical assay, delta isoform; details: form screened (neutral or TFA salt) given, read-out: PI3Kdelta IC50
T2 construct: purchased Upstate; Millipore 14-604
T2 sequence (O00329 whole entry, canonical isoform): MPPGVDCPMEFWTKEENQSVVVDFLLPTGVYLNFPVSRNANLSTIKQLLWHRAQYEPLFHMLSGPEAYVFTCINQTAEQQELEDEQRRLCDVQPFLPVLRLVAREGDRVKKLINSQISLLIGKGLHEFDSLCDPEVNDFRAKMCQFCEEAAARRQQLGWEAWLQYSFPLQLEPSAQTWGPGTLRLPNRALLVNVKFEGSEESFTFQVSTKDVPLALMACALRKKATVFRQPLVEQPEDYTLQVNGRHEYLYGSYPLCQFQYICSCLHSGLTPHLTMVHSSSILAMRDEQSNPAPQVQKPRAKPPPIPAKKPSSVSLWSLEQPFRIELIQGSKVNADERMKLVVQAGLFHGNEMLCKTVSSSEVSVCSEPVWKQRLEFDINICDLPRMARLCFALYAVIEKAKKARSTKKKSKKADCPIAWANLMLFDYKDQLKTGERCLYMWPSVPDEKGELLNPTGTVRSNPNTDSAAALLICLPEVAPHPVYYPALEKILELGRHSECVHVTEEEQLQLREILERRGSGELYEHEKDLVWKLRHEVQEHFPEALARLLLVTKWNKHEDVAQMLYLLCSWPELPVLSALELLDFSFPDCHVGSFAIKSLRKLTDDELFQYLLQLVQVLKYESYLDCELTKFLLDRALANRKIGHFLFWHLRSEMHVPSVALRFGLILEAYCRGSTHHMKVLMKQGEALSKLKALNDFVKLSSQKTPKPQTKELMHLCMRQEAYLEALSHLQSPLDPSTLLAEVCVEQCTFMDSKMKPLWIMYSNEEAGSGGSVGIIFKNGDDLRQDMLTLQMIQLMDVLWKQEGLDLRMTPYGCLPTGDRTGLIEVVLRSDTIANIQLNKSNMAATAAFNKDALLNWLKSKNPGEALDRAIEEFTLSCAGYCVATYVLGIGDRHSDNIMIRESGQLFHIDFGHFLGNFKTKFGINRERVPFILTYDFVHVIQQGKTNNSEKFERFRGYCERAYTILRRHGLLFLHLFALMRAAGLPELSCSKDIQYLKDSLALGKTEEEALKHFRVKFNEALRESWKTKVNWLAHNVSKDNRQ
T2 sequence (P27986 whole entry partner, canonical isoform): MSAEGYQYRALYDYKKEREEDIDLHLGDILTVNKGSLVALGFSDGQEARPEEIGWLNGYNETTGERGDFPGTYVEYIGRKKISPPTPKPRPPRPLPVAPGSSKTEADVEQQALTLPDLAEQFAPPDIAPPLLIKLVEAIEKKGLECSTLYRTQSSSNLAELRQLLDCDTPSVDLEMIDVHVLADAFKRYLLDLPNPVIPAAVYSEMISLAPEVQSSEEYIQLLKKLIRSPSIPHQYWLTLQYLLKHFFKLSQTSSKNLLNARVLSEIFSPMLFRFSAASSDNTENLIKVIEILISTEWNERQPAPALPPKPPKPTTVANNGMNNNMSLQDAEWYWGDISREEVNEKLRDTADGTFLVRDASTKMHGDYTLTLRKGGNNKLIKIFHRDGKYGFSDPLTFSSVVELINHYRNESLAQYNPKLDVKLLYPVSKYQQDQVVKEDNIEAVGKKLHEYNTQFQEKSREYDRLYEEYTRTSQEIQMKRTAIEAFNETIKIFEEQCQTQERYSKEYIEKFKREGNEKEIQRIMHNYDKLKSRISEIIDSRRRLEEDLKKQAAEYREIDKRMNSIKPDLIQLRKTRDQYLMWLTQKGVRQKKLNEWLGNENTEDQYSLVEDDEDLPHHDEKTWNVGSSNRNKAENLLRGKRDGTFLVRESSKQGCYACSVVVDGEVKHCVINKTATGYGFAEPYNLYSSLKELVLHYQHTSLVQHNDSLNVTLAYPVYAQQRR

T1 sequence (P42336 whole entry, canonical isoform): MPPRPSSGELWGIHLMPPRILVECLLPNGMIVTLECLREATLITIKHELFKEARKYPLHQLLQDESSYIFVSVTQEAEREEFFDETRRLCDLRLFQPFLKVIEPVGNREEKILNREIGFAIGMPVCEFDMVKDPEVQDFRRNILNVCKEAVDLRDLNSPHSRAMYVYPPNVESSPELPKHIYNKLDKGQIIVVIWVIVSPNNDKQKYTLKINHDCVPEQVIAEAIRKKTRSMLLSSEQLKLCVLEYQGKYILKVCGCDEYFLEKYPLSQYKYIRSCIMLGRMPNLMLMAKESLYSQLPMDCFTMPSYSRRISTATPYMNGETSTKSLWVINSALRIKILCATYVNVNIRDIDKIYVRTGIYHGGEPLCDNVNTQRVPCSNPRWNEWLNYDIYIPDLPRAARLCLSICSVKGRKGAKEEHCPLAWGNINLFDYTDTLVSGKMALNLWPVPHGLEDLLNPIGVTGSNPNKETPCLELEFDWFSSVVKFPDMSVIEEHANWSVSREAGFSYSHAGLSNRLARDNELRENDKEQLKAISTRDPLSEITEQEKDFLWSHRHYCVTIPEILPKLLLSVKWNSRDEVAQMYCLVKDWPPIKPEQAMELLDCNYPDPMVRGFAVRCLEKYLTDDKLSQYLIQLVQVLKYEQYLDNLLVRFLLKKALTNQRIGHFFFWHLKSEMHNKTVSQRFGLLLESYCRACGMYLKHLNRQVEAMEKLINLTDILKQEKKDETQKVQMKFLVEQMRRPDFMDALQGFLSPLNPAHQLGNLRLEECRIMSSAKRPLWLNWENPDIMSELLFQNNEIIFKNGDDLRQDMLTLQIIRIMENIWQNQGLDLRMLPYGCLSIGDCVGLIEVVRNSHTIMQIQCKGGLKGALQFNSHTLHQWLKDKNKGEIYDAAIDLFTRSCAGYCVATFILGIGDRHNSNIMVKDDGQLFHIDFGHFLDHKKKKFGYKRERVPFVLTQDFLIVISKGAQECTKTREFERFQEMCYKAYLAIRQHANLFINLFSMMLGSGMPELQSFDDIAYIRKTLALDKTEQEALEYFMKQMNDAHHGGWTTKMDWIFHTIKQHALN
T1 sequence (P27986 whole entry partner, canonical isoform): as the sequence (P27986 whole entry partner, canonical isoform) above

| SMILES | Selectivity versus PI3Kalpha (PI3K-alpha) | IC50 (PI3K-delta) |
| --- | --- | --- |
| CCn1c(-c2cnc(C)nc2)nc2c(NC3CN(C(=O)C4CC4)CC34CC4)ncnc21 (racemic) [Compound 3-17, (R and S)-N-[5-(cyclopropylcarbonyl)-5-azaspiro[2.4]hept-7-yl]-9-ethyl-8-(2-methylpyrimidin-5-yl)-9H-purin-6-amine] | >10 | < 1 nM |
| CCn1c(-c2cnc(C)nc2)nc2c(NC3(C)CCN(C(=O)C4CC4)C3)ncnc21 (racemic) [Compound 3-18, N-[(R and S)-1-(cyclopropylcarbonyl)-3-methylpyrrolidin-3-yl]-9-ethyl-8-(2-methylpyrimidin-5-yl)-9H-purin-6-amine] | >10 | 2.6 nM |
| CCC1CN(C(=O)C2CC2)CC1Nc1ncnc2c1nc(-c1cnc(C)nc1)n2CC (racemic) [Compound 3-19, N-[(3R,4S and 3S,4R)-1-(cyclopropylcarbonyl)-4-ethylpyrrolidin-3-yl]-9-ethyl-8-(2-methylpyrimidin-5-yl)-9H-purin-6-amine] | >10 | 3.8 nM |
| CCn1c(-c2cnc(C)nc2)nc2c(NC3CN(C(=O)C4CC4)CC3C(F)(F)F)ncnc21 (racemic) [Compound 3-22, N-[(3R,4S and 3S,4R)-1-(cyclopropylcarbonyl)-4-(trifluoromethyl)pyrrolidin-3-yl]-9-ethyl-8-(2-methylpyrimidin-5-yl)-9H-purin-6-amine] | >10 | 2.9 nM |
| CCn1c(-c2cnc(C)nc2)nc2c(NC3CN(C(=O)C4CC4)CC3F)ncnc21 (racemic) [Compound 3-26, N-[(3R,4S and 3S,4R)-1-(cyclopropylcarbonyl)-4-fluoropyrrolidin-3-yl]-9-ethyl-8-(2-methylpyrimidin-5-yl)-9H-purin-6-amine] | >10 | 34 nM |
| CCn1c(-c2cnc(C)nc2)nc2c(N[C@H]3CCN(C(=O)N4CCC4C)C3)ncnc21 (mixture of isomers) [Compound 12-3, 9-ethyl-N-{(3S)-1-[((S and R)-2-methylazetidin-1-yl)carbonyl]pyrrolidin-3-yl}-8-(2-methylpyrimidin-5-yl)-9H-purin-6-amine] | >10 | 1.6 nM |
| CCn1c(-c2cnc(C)nc2)nc2c(N[C@H]3CCN(C(=O)NCC4CCS(=O)(=O)C4)C3)ncnc21 (mixture of isomers) [Compound 12-20, (3S)-N-[((S and R)-1,1-dioxidotetrahydrothiophen-3-yl)methyl]-3-{[9-ethyl-8-(2-methylpyrimidin-5-yl)-9H-purin-6-yl]amino}pyrrolidine-1-carboxamide] | >10 | 9.4 nM |
| CCn1c(-c2cnc(C)nc2)nc2c(N[C@H]3CCN(C(=O)OC4CCS(=O)(=O)C4)C3)ncnc21 (mixture of isomers) [Compound 13-6, (S and R)-1,1-dioxidotetrahydrothiophen-3-yl (3S)-3-{[9-ethyl-8-(2-methylpyrimidin-5-yl)-9H-purin-6-yl]amino}pyrrolidine-l-carboxylate] | >10 | 4.6 nM |
| CCC(C)OC(=O)N1CC[C@H](Nc2ncnc3c2nc(-c2cnc(C)nc2)n3CC)C1 (mixture of isomers) [Compound 13-9, (S and R)-1-methylpropyl (3S)-3-{[9-ethyl-8-(2-methylpyrimidin-5-yl)-9H-purin-6-yl]amino}pyrrolidine-1-carboxylate] | >10 | 3.5 nM |
| CCn1c(-c2cnc(C)nc2)nc2c(NC3CN(C(=O)C4CC4)CC3(F)F)ncnc21 (single isomer, unassigned) [Compound 2-26, N-[(3S or 3R)-1-(cyclopropylcarbonyl)-4,4-difluoropyrrolidin-3-yl]-9-ethyl-8-(2-methylpyrimidin-5-yl)-9H-purin-6-amine] | >10 | 10 nM |
| CCn1c(-c2cnc(C)nc2)nc2c(N[C@H]3CCN(C(=O)C4CCCO4)C3)ncnc21 (single isomer, unassigned) [Compound 2-32, 9-ethyl-8-(2-methylpyrimidin-5-yl)-N-[(3S)-1-((S or R)-tetrahydrofuran-2-ylcarbonyl)pyrrolidin-3-yl]-9H-purin-6-amine] | >10 | 3.1 nM |
| CCn1c(-c2cnc(C)nc2)nc2c(N[C@H]3CCN(C(=O)C4CC45CCCC5)C3)ncnc21 (single isomer, unassigned) [Compound 2-34, 9-ethyl-8-(2-methylpyrimidin-5-yl)-N-[(3S)-1-((R or S)-spiro[2.4]hept-1-ylcarbonyl)pyrrolidin-3-yl]-9H-purin-6-amine] | >10 | 11 nM |
| CCn1c(-c2cnc(C)nc2)nc2c(N[C@H]3CCN(C(=O)C4CC45CCCC5)C3)ncnc21 (single isomer, unassigned) [Compound 2-35, 9-ethyl-8-(2-methylpyrimidin-5-yl)-N-[(3S)-1-((R or S)-spiro[2.4]hept-1-ylcarbonyl)pyrrolidin-3-yl]-9H-purin-6-amine] | >10 | < 1 nM |
| CCn1c(-c2cnc(C)nc2)nc2c(NC3CN(C(=O)C4CC4)CC3C)ncnc21 (single isomer, unassigned) [Compound 2-87, N-[(3S,4R or 3R,4S)-1-(cyclopropylcarbonyl)-4-methylpyrrolidin-3-yl]-9-ethyl-8-(2-methylpyrimidin-5-yl)-9H-purin-6-amine] | >10 | 1.7 nM |
| CCn1c(-c2cnc(C)nc2)nc2c(NC3CN(C(=O)C4CC45CCCCC5)CC3C)ncnc21 (single isomer, unassigned) [Compound 2-88, 9-ethyl-8-(2-methylpyrimidin-5-yl)-N-[(3S,4R or 3R,4S)-4-methyl-1-((S and R)-spiro[2.5]oct-1-ylcarbonyl)pyrrolidin-3-yl]-9H-purin-6-amine] | >10 | < 1 nM |

The remaining lines, values ahead:

| Selectivity versus PI3Kalpha (PI3K-alpha) | IC50 (PI3K-delta) | SMILES |
| --- | --- | --- |
| >10 | 11 nM | CCCN1CC(Nc2ncnc3c2nc(-c2cnn(CC)c2C)n3C)CC1=O (racemic) [Compound 14-1, 4(S and R)-{[8-(1-ethyl-5-methyl-1H-pyrazol-4-yl)-9-methyl-9H-purin-6-yl]amino}-1-propylpyrrolidin-2-one] |
| >10 | 10 nM | C=C(C)CN1CC(Nc2ncnc3c2nc(-c2cnn(CC)c2C)n3C)CC1=O (racemic) [Compound 14-2, 4(S and R)-{[8-(1-ethyl-5-methyl-1H-pyrazol-4-yl)-9-methyl-9H-purin-6-yl]amino}-1-(2-methylprop-2-en-1-yl)pyrrolidin-2-one] |
| >10 | 5.4 nM | CCn1ncc(-c2nc3c(NC4CC(=O)N(CC(C)C)C4)ncnc3n2C)c1C (racemic) [Compound 14-3, 4(S and R)-{[8-(1-ethyl-5-methyl-1H-pyrazol-4-yl)-9-methyl-9H-purin-6-yl}amino}-1-(2-methylpropyl)pyrrolidin-2-one] |
| >10 | 24 nM | CCCN1CC(Nc2ncnc3c2nc(-c2cnc(C)nc2)n3CC)CC1=O (racemic) [Compound 14-4, 4(S and R)-{[9-ethyl-8-(2-methylpyrimidin-5-yl)-9H-purin-6-yl]amino}-1-propylpyrrolidin-2-one] |
| >10 | 21 nM | CCCN1CC(Nc2ncnc3c2nc(-c2cnc(C)nc2)n3CC)CCC1=O (racemic) [Compound 14-5, 5(S and R)-{[9-ethyl-8-(2-methylpyrimidin-5-yl)-9H-purin-6-yl]amino}-1-propylpiperidin-2-one] |

Reference: patent publication US9938281B2 (Merck Sharp & Dohme Corp., priority 2012, dated 2018)
